# Like-named read-outs stand apart in the source and are kept apart here.
# Tests used:
# IC patients [1] = settings: intravesical instillations; cited from earlier work
# cancer patients = settings: cited from earlier work
# [2] = Uncharged fraction of lidocaine by Henderson-Hasselbalch equation; assay type: physicochemical
# Description: For the acute-acting anesthetic to function properly, it typically needs to be in a pH environment that enables the chemical form of the drug to be neutral thereby allowing the molecule to traverse the membranes and gain access to the neurons underlying the bladder epithelium. To achieve this pH, a buffer must be provided so that the pH is sufficiently near to the isoelectric point of the chosen anesthetic to ensure that a sufficient portion of the acute-acting anesthetic is present in an uncharged state. A sufficient portion can minimally be 20% up to 100% in its uncharged state and those skilled in the art can use the drug's isoelectric point and the Henderson-Hasselbalch equation to calculate the minimal pH of the solution to achieve the 20% minimal uncharged amount. Preferably, the pH of the solution is such that at least about 40% of the acute-acting anesthetic is present in an uncharged state. […]. This buffering can be achieved by the addition of bicarbonate buffer, Tris (Tris(hydroxymethyl)aminomethane) buffer, MOPS buffer (3-(N-morpholino)propanesulfonic acid), HEPES (N-(2-hydroxyethyl)piperazine-N′-(2-ethanesulfonic acid) buffer, ACES (2-[(2-amino-2-oxoethyl)amino]ethanoesulfonic acid) buffer, ADA (N-(2-acetamido)-2-iminodiacetic acid) buffer, AMPSO (3-[(1,1-dimethyl-2-hydroxyethyl)amino]-2-propanesulfonic acid) buffer, BES (N,N-bis(2-hydroxyethyl)-2-aminoethanesulfonic acid buffer, Bicine (N,N-bis(2-hydroxyethylglycine) buffer, Bis-Tris (bis-(2-hydroxyethyl)imino-tris(hydroxymethyl)methane buffer, CAPS (3-(cyclohexylamino)-1-propanesulfonic acid) buffer, CAPSO (3-(cyclohexylamino)-2-hydroxy-1-propanesulfonic acid) buffer, CHES (2-(N-cyclohexylamino)ethanesulfonic acid) buffer, DIPSO (3-[N,N-bis(2-hydroxyethyl)amino]-2-hydroxy-propanesulfonic acid) buffer, HEPPS(N-(2-hydroxyethylpiperazine)-N′-(3-propanesulfonic acid), buffer, HEPPSO(N-(2-hydroxyethyl)piperazine-N′-(2-hydroxypropanesulfonic acid) buffer, MES (2-(N-morpholino)ethanesulfonic acid) buffer, triethanolamine buffer, imidazole buffer, glycine buffer, ethanolamine buffer, phosphate buffer, MOPSO (3-(N-morpholino)-2-hydroxypropanesulfonic acid) buffer, PIPES (piperazine-N,N′-bis(2-ethanesulfonic acid) buffer, POPSO (piperazine-N,N′-bis(2-hydroxypropaneulfonic acid) buffer; TAPS(N-tris[hydroxymethyl)methyl-3-aminopropanesulfonic acid) buffer, TAPSO (3-[N-tris(hydroxymethyl)methylamino]-2-hydroxy-propanesulfonic acid) buffer, TES (N-tris(hydroxymethyl)methyl-2-aminoethanesulfonic acid) buffer, tricine (N-tris(hydroxymethyl)methylglycine buffer), 2-amino-2-methyl-1,3-propanediol buffer, 2-amino-2-methyl-1-propanol buffer, or another buffer that can buffer the composition to be administered at the appropriate pH value. The buffer to be selected, and the concentration of the buffer to be used, can be chosen by one of ordinary skill in the art to buffer the composition to be administered at a pH value that is close to the isoelectric point of the local anesthetic. […]. For bupivacaine, it is 8.1. For etidocaine, it is 7.7. For flecamide, it is 9.3. Typically, the pH achieved by the use of the buffer is between about 7.0 and about 12.0. More typically, the pH achieved by the use of the buffer is between about 7.0 and about 9.5. Typically, when bicarbonate buffer is used, it is sodium bicarbonate buffer; however, other counterions can be used as described above.
# IC patients [3] = settings: intravesical, interstitial cystitis; cited from earlier work
molecule,measurement,setting,value
"C[S+](C)[O-] [DMSO, dimethylsulfoxide]",IC patients treated with benefit,IC patients [1],~50%
"O=S(=O)(O)CCS [Mesnex, mesna]",frequency of adverse events (all AEs),cancer patients; IV,85%
same,frequency of adverse events (all AEs),cancer patients; oral,89%
CCN(CC)CC(=O)Nc1c(C)cccc1C [lidocaine],lidocaine uncharged,[2]; pH 6.6,5%
same,lidocaine uncharged,[2]; pH 7.0,10%
same,lidocaine uncharged,[2]; pH 7.2,20%
same,lidocaine uncharged,[2]; pH 7.5,30%
same,lidocaine uncharged,[2]; pH 7.7,40%
same,lidocaine uncharged,[2]; pH 7.9,50%
heparin,patients treated in whom effective,IC patients [3],approximately 50%
